Assays:
[1] = Test paper moistened with a blood plasma solution; details: paper impregnated with ethanol solution containing 0.01% substrate
Source text: The crude product was purified on a chromatography column (stationary phase: silica gel; mobile phase: CHCl3 +glacial acetic acid 19:1).

β-glucuronidase = target: T1, β-glucuronidase (Homo sapiens, UniProt P08236); test: Determination of β-glucuronidase in human urine; format: biochemical; details: human urine concentrate, pH 5, 30° C., 366 nm
T1 construct: from tissue; host or cells: human urine concentrate
T1 sequence (P08236 23-651): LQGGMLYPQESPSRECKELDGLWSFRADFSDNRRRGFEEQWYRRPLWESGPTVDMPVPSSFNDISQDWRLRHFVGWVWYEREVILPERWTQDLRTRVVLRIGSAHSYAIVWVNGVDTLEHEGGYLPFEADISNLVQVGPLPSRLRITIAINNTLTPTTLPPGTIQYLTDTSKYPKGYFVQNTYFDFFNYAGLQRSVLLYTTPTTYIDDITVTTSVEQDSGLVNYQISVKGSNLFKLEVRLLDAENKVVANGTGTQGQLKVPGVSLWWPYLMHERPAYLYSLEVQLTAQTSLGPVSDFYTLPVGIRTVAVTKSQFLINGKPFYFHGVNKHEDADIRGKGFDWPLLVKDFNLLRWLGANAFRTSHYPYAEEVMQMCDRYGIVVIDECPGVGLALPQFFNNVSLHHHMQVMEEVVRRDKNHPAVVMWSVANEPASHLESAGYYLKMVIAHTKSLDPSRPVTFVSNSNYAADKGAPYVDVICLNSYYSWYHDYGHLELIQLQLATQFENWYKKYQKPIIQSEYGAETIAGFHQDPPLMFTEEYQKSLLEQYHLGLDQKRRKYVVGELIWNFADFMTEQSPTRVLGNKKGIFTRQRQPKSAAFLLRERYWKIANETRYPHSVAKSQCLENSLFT
Description: The β-galactosidase activity could be kinetically measured in human urine by the use of 2H-7-O-(β-D-galactopyranosyl)-4-methyl-8-nitrobenzopyran-2-one (compound S15). An extinction change of 4 mE/min was recorded at 23° C. and 366 nm with the use of 200 μl of buffered substrate solution and 200 μl of urine of normal concentration. […] Also, β-galactosidase in human urine could be kinetically determined by using resorufin-β-D-galactopyranoside (compound S6). […] The activity of β-glucuronidase in human urine could be kinetically measured with 2H-7-O-(β-D-glucuronopyranosyl)-4-methyl-8-nitrobenzopyran-2-one (compound S9).
In this case, 0.1 ml of urine concentrate was added to 0.6 ml of buffered substrate solution and the activity recorded at pH 5, 30° C. and 366 nm. Under these conditions an absorbance difference of 0,014 A/min was measured. Consequently the determination is many times more sensitive than with the customary p-nitrophenyl substrate (Table 4).

SMILES	coloration of test paper [1]	delta A/min (β-glucuronidase)
Cc1ccc(S(=O)(=O)NCC(=O)N2CCC[C@H]2C(=O)N[C@@H](CCCNC(=N)N)C(=O)Oc2ccc3c(c2)oc2cc(=O)ccc-2[n+]3[O-])cc1 [Tos-Gly-Pro-Arg-resazurin]	immediate blue-violet coloration	–
Cc1cc(=O)oc2c([N+](=O)[O-])c(O[C@@H]3O[C@H](C(=O)O)[C@@H](O)[C@H](O)[C@H]3O)ccc12 [compound S9, 2H-7-O-(1-β-D-Glucuronopyranosyl)-4-methyl-8-nitrobenzopyran-2-one]	–	0,014 A/min
